Measurements: PubChem BioAssay (NCI)
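At the GI50, growth is halved. TGI marks complete inhibition of growth.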

How the values were obtained:
Assay in all cases: DTP human tumour cell line panel, 384-well format; in the data active = GI50 below about 0.43 µM; inactive = the rest
A498 renal = system: A498 renal
A549 NSCLC = system: A549 NSCLC
BT-549 breast = system: BT-549 breast
CCRF-CEM leukemia = system: CCRF-CEM leukemia
COLO 205 colon = system: COLO 205 colon
DU-145 prostate = system: DU-145 prostate
EKVX NSCLC = system: EKVX NSCLC
HCC-2998 colon = system: HCC-2998 colon
HCT-15 colon = system: HCT-15 colon
HL-60(TB) leukemia = system: HL-60(TB) leukemia
HOP-62 NSCLC = system: HOP-62 NSCLC
HOP-92 NSCLC = system: HOP-92 NSCLC
IGROV1 ovarian = system: IGROV1 ovarian
K-562 leukemia = system: K-562 leukemia
KM12 colon = system: KM12 colon
LOX IMVI melanoma = system: LOX IMVI melanoma
M14 melanoma = system: M14 melanoma
MALME-3M melanoma = system: MALME-3M melanoma
MDA-MB-231 breast = system: MDA-MB-231 breast
MDA-MB-435 melanoma = system: MDA-MB-435 melanoma
MDA-MB-468 breast = system: MDA-MB-468 breast
MOLT-4 leukemia = system: MOLT-4 leukemia
NCI-H23 lung = system: NCI-H23 lung
NCI-H322M lung = system: NCI-H322M lung
NCI-H460 NSCLC = system: NCI-H460 NSCLC
NCI-H522 lung = system: NCI-H522 lung
NCI/ADR-RES ovarian = system: NCI/ADR-RES ovarian
OVCAR-3 ovarian = system: OVCAR-3 ovarian
OVCAR-4 ovarian = system: OVCAR-4 ovarian
OVCAR-5 ovarian = system: OVCAR-5 ovarian
OVCAR-8 ovarian = system: OVCAR-8 ovarian
PC-3 prostate = system: PC-3 prostate
RPMI-8226 leukemia = system: RPMI-8226 leukemia
SF-268 CNS = system: SF-268 CNS
SF-539 CNS = system: SF-539 CNS
SK-MEL-2 melanoma = system: SK-MEL-2 melanoma
SK-MEL-5 melanoma = system: SK-MEL-5 melanoma
SN12C renal = system: SN12C renal
SNB-19 CNS = system: SNB-19 CNS
SNB-75 CNS = system: SNB-75 CNS
SR leukemia = system: SR leukemia
SW-620 colon = system: SW-620 colon
T-47D breast = system: T-47D breast
TK-10 renal = system: TK-10 renal
UACC-257 melanoma = system: UACC-257 melanoma
UACC-62 melanoma = system: UACC-62 melanoma
UO-31 renal = system: UO-31 renal

CCS(=O)(=O)N1CCC(C(C)n2c(C)c(C(=O)NCc3c(OC)cc(C)[nH]c3=O)c3ccccc32)CC1 (centres undefined)
inactive: GI50 (A498 renal) > 100 µM | GI50 (A549 NSCLC) > 100 µM | GI50 (BT-549 breast) > 100 µM | GI50 (CCRF-CEM leukemia) > 100 µM | GI50 (COLO 205 colon) > 100 µM | GI50 (DU-145 prostate) > 100 µM | GI50 (EKVX NSCLC) > 100 µM | GI50 (HCC-2998 colon) > 100 µM | GI50 (HCT-15 colon) > 100 µM | GI50 (HL-60(TB) leukemia) > 100 µM | GI50 (HOP-62 NSCLC) > 87.9 µM | GI50 (HOP-92 NSCLC) > 100 µM | GI50 (IGROV1 ovarian) > 100 µM | GI50 (K-562 leukemia) > 100 µM | GI50 (KM12 colon) > 100 µM | GI50 (LOX IMVI melanoma) > 78.6 µM | GI50 (M14 melanoma) > 100 µM | GI50 (MALME-3M melanoma) > 100 µM | GI50 (MDA-MB-231 breast) > 100 µM | GI50 (MDA-MB-435 melanoma) > 100 µM | GI50 (MDA-MB-468 breast) 40 µM | GI50 (MOLT-4 leukemia) 42.4 µM | GI50 (NCI-H23 lung) > 100 µM | GI50 (NCI-H322M lung) > 100 µM | GI50 (NCI-H460 NSCLC) > 100 µM | GI50 (NCI-H522 lung) > 100 µM | GI50 (NCI/ADR-RES ovarian) > 100 µM | GI50 (OVCAR-3 ovarian) > 100 µM | GI50 (OVCAR-4 ovarian) > 100 µM | GI50 (OVCAR-5 ovarian) > 100 µM | GI50 (OVCAR-8 ovarian) > 100 µM | GI50 (PC-3 prostate) > 100 µM | GI50 (RPMI-8226 leukemia) 7.49 µM | GI50 (SF-268 CNS) > 42.6 µM | GI50 (SF-539 CNS) > 100 µM | GI50 (SK-MEL-2 melanoma) > 100 µM | GI50 (SK-MEL-5 melanoma) > 100 µM | GI50 (SN12C renal) > 100 µM | GI50 (SNB-19 CNS) > 100 µM | GI50 (SNB-75 CNS) > 100 µM | GI50 (SR leukemia) > 100 µM | GI50 (SW-620 colon) > 100 µM | GI50 (T-47D breast) > 64.5 µM | GI50 (TK-10 renal) > 100 µM | GI50 (UACC-257 melanoma) > 100 µM | GI50 (UACC-62 melanoma) > 100 µM | GI50 (UO-31 renal) > 100 µM
> 100 µM: TGI (A498 renal) | TGI (A549 NSCLC) | TGI (BT-549 breast) | TGI (CCRF-CEM leukemia) | TGI (COLO 205 colon) | TGI (DU-145 prostate) | TGI (EKVX NSCLC) | TGI (HCC-2998 colon) | TGI (HCT-15 colon) | TGI (HL-60(TB) leukemia) | TGI (HOP-62 NSCLC) | TGI (HOP-92 NSCLC) | TGI (IGROV1 ovarian) | TGI (K-562 leukemia) | TGI (KM12 colon) | TGI (LOX IMVI melanoma) | TGI (M14 melanoma) | TGI (MALME-3M melanoma) | TGI (MDA-MB-231 breast) | TGI (MDA-MB-435 melanoma) | TGI (MDA-MB-468 breast) | TGI (MOLT-4 leukemia) | TGI (NCI-H23 lung) | TGI (NCI-H322M lung) | TGI (NCI-H460 NSCLC) | TGI (NCI-H522 lung) | TGI (NCI/ADR-RES ovarian) | TGI (OVCAR-3 ovarian) | TGI (OVCAR-4 ovarian) | TGI (OVCAR-5 ovarian) | TGI (OVCAR-8 ovarian) | TGI (PC-3 prostate) | TGI (SF-539 CNS) | TGI (SK-MEL-2 melanoma) | TGI (SK-MEL-5 melanoma) | TGI (SN12C renal) | TGI (SNB-19 CNS) | TGI (SNB-75 CNS) | TGI (SR leukemia) | TGI (SW-620 colon) | TGI (T-47D breast) | TGI (TK-10 renal) | TGI (UACC-257 melanoma) | TGI (UACC-62 melanoma) | TGI (UO-31 renal)
> 86.4 µM: TGI (RPMI-8226 leukemia)
> 96.3 µM: TGI (SF-268 CNS)
